# Source: PMC11992225, “Antibacterial compounds against non-growing and intracellular bacteria” (npj Antimicrobials and Resistance, 2025)
# Read-outs that look alike come from different tables or passages of the source.
# Key:
# E. coli CFT073 (UPEC) = assay: MIC, standard microdilution assay, growing UPEC; assay type: cell-based, Escherichia coli; conditions: E. coli, pH 7.4
# Procedure: (§1) Minimal inhibitory concentrations (MICs) were determined using a standard microdilution assay protocol. CA-MHB medium buffered with 40 mM HEPES (pH 7.4) was used to determine the MICs for UPEC, P. aeruginosa, and S. aureus. […] MICs for UPEC were also determined in LPM buffered with 30 mM MES (pH 5.5). For S. flexneri, MICs were determined in tryptic soy broth (TSB). The assay was performed in triplicates.
# S. flexneri 5a M90T = assay: MIC in tryptic soy broth, S. flexneri; assay type: cell-based, Shigella flexneri
# Procedure: as §1
# P. aeruginosa DSM1117 = assay: MIC, standard microdilution assay, growing P. aeruginosa; assay type: cell-based, Pseudomonas aeruginosa; conditions: P. aeruginosa, CA-MHB pH 7.4, read-out: MIC (μM) CA-MHB
# Procedure: as §1
# non-growing UPEC CFT073 [1] = assay: Dose-dependent killing analysis (CFU spot-plating) of stationary-phase UPEC; assay type: cell-based, Escherichia coli; conditions: E. coli in 1:4 CA-MHB (pH 7.4); for Δlog10(CFU/ml): average killing vs before treatment (8.977)
# Procedure: To differentiate between these scenarios, we used CFU counting by agar plating to assess the bactericidal effect on non-growing bacteria. […] Conversely, if no significant reduction in CFU is observed, the regrowth delay is due to PAE without killing. […] Fluoroquinolones are known to cause PAE after treatment of growing bacterial cultures.
# For survival analysis, bacteria were cultivated as described for the dose–response dilution-regrowth assay. Assays with UPEC were conducted at the CBCS screening facility using 96-well plates with a 200 μl sample volume, and compounds were dispensed using the Echo® (Labcyte) system. P. aeruginosa and S. aureus samples were treated according to the protocol used for the dilution-regrowth experiments. Treated samples were serially diluted 10-fold in PBS, and 10 μl drops were spot-plated onto rectangular LB agar plates using either a Beckman NXP robot (for UPEC) or an Integra VIAFLO96 electronic pipette (for P. aeruginosa and S. aureus). The LB agar plates were incubated overnight at 37 °C and scanned. Colonies were counted at the spots of the lowest dilution where individual colonies could be accurately distinguished. Each colony was manually marked on a separate image layer using the GNU Image Manipulation Program, and counted using NIST’s Integrated Colony Enumerator (NICE 1.4) software. The experiments were performed in three biological replicates.
# non-growing UPEC CFT073 [2] = assay: Dilution-regrowth assay (screen, hit validation, dose-response) on stationary-phase UPEC; assay type: cell-based, Escherichia coli; conditions: for OD600 at 6hr, Mean: after dilution into drug-free medium; for EC50: E. coli, pH 7.4, regrowth delay of non-growing bacteria, 1:4 CA-MHB, 24 h treatment, OD600 6 h after 2500-fold dilution, read-out: EC50; for activity in the dilution-regrowth screen: non-growing UPEC, 20 μM
# Procedure: The cultures were incubated for 24 h in non-baffled Erlenmeyer flasks at 37 °C with shaking at 200 rpm.
# The high-throughput screening (HTS) procedure was based on the protocol by Hazan and colleagues[15] and conducted at the Chemical Biology Consortium Sweden (CBCS) screening facility. […] Each plate included eight wells with 200 nl of 10 mM gatifloxacin, finafloxacin, and kanamycin solutions, along with 8-wells containing 200 nl of DMSO as controls. After 24 h incubation,100 μl of the culture was dispensed into each well of the 384-well plates for screening at a final concentration of 20 μM. The plates were sealed with parafilm and incubated at 37 °C for 24 h in closed humidified boxes, with wet paper towels added to prevent evaporation. […] The plates were incubated at 37 °C for 6 h in humidified boxes, then OD600 was measured using a microplate reader.
# For hit validation, bacteria were cultivated, and the dilution-regrowth assay was conducted following the same protocol used in the primary screen. Hit compounds were dispensed into 384-well plates using the Echo® (Labcyte) system, with 200, 100, or 50 nl of a 10 mM solution in DMSO added per well, yielding final screening concentrations of 20, 10, and 5 μM, respectively. OD600 values of regrowing samples were normalized to the mean OD600 of the drug-free control. The testing was conducted in two replicates.
# For UPEC, dose–response analysis was conducted at the CBCS screening facility. Bacteria were cultivated, and the dilution-regrowth assay was performed according to the HTS protocol. Compounds were dispensed into 384-well plates using the Echo® (Labcyte) system, and regrowth was assessed by measuring OD600 after 6 h of incubation at 37 °C in humidified boxes. Three biological replicates were performed.
# Statistical significance of the drug effects was assessed using a one-way ANOVA followed by Dunnett’s test, comparing each treatment to the drug-free control. Statistical significance of the differences in chemical characteristics between the hit compounds and the Prestwick library was assessed using a Mann–Whitney test. Statistical significance was set at P ≤ 0.05. A five-parameter logistic equation was used for asymmetric sigmoidal curve fitting and for EC50 and IC50 determination. The Venn diagram in Fig. 1F was prepared using BioVenn web application. Characteristics of the chemical and physical properties of Prestwick library compounds were obtained from Supplementary Table S1 from reference. Characteristics of the hit compounds not included in the Prestwick library were retrieved from the PubChem database.
# S. aureus DSM2569 = assay: MIC, standard microdilution assay, growing S. aureus; assay type: cell-based, Staphylococcus aureus; conditions: Staphylococcus aureus, DSM2569; S. aureus; CA-MHB pH 7.4; read-out: MIC (μM) CA-MHB
# Procedure: as §1
compound,measurement,setting,value
CCC[C@H](NC(=O)/C(C#N)=C/c1cccc(Br)n1)c1ccccc1 [Degrasyn],MIC,"E. coli CFT073 (UPEC); 1:4 diluted CA-MHB, read-out: MIC (μM) 1:4 CA-MHB",>80 µM
same,MIC (μM) CA-MHB +PAβN,E. coli CFT073 (UPEC); CA-MHB with 10 μg/ml efflux pump inhibitor PaβN,>80 µM
same,MIC,"E. coli CFT073 (UPEC); CA-MHB, read-out: MIC (μM) CA-MHB",>80 µM
same,MIC (μM) TSB,"S. flexneri 5a M90T; S. flexneri, extracellular bacteria in TSB",>128 µM
same,MIC,P. aeruginosa DSM1117,>80 µM
same,"Log10(CFU/ml), Replicate #1",non-growing UPEC CFT073 [1]; 0.25 μM,9.301 Log10(CFU/ml)
same,"Log10(CFU/ml), Replicate #2",non-growing UPEC CFT073 [1]; 0.25 μM,8.699 Log10(CFU/ml)
same,"Log10(CFU/ml), Replicate #3",non-growing UPEC CFT073 [1]; 0.25 μM,9.079 Log10(CFU/ml)
same,Δlog10(CFU/ml),non-growing UPEC CFT073 [1]; 0.25 μM,-0.049 log10(CFU/ml)
same,"Log10(CFU/ml), Replicate #1",non-growing UPEC CFT073 [1]; 0.5 μM,9.279 Log10(CFU/ml)
same,"Log10(CFU/ml), Replicate #2",non-growing UPEC CFT073 [1]; 0.5 μM,8.505 Log10(CFU/ml)
same,"Log10(CFU/ml), Replicate #3",non-growing UPEC CFT073 [1]; 0.5 μM,8.602 Log10(CFU/ml)
same,Δlog10(CFU/ml),non-growing UPEC CFT073 [1]; 0.5 μM,0.182 log10(CFU/ml)
same,"Log10(CFU/ml), Replicate #1",non-growing UPEC CFT073 [1]; 1 μM,9.204 Log10(CFU/ml)
same,"Log10(CFU/ml), Replicate #2",non-growing UPEC CFT073 [1]; 1 μM,8.477 Log10(CFU/ml)
same,"Log10(CFU/ml), Replicate #3",non-growing UPEC CFT073 [1]; 1 μM,9.204 Log10(CFU/ml)
same,Δlog10(CFU/ml),non-growing UPEC CFT073 [1]; 1 μM,0.016 log10(CFU/ml)
same,"Log10(CFU/ml), Replicate #1",non-growing UPEC CFT073 [1]; 2.5 μM,9.204 Log10(CFU/ml)
same,"Log10(CFU/ml), Replicate #2",non-growing UPEC CFT073 [1]; 2.5 μM,8.845 Log10(CFU/ml)
same,"Log10(CFU/ml), Replicate #3",non-growing UPEC CFT073 [1]; 2.5 μM,8.301 Log10(CFU/ml)
same,Δlog10(CFU/ml),non-growing UPEC CFT073 [1]; 2.5 μM,0.194 log10(CFU/ml)
same,"Log10(CFU/ml), Replicate #1",non-growing UPEC CFT073 [1]; 5 μM,8.954 Log10(CFU/ml)
same,"Log10(CFU/ml), Replicate #2",non-growing UPEC CFT073 [1]; 5 μM,6.778 Log10(CFU/ml)
same,"Log10(CFU/ml), Replicate #3",non-growing UPEC CFT073 [1]; 5 μM,7.176 Log10(CFU/ml)
same,Δlog10(CFU/ml),non-growing UPEC CFT073 [1]; 5 μM,1.341 log10(CFU/ml)
same,"Log10(CFU/ml), Replicate #1",non-growing UPEC CFT073 [1]; 10 μM,6.623 Log10(CFU/ml)
same,"Log10(CFU/ml), Replicate #2",non-growing UPEC CFT073 [1]; 10 μM,6.699 Log10(CFU/ml)
same,"Log10(CFU/ml), Replicate #3",non-growing UPEC CFT073 [1]; 10 μM,6.532 Log10(CFU/ml)
same,Δlog10(CFU/ml),non-growing UPEC CFT073 [1]; 10 μM,2.359 log10(CFU/ml)
same,"OD600 at 6hr, Mean","non-growing UPEC CFT073 [2]; E. coli in 1:4 CA-MHB (pH 7.4), 0.25 μM",0.603
same,"OD600 at 6hr, Mean","non-growing UPEC CFT073 [2]; E. coli in 1:4 CA-MHB (pH 7.4), 0.5 μM",0.604
same,"OD600 at 6hr, Mean","non-growing UPEC CFT073 [2]; E. coli in 1:4 CA-MHB (pH 7.4), 1 μM",0.558
same,"OD600 at 6hr, Mean","non-growing UPEC CFT073 [2]; E. coli in 1:4 CA-MHB (pH 7.4), 2.5 μM",0.295
same,"OD600 at 6hr, Mean","non-growing UPEC CFT073 [2]; E. coli in 1:4 CA-MHB (pH 7.4), 5 μM",0.108
same,"OD600 at 6hr, Mean","non-growing UPEC CFT073 [2]; E. coli in 1:4 CA-MHB (pH 7.4), 10 μM",0.069
same,"OD600 at 6hr, Mean","non-growing UPEC CFT073 [2]; E. coli in 1:4 CA-MHB (pH 7.4), 30 μM",0.079
same,"OD600 at 6hr, Mean","non-growing UPEC CFT073 [2]; E. coli in LPM (pH 5.5), 0.25 μM",0.554
same,"OD600 at 6hr, Mean","non-growing UPEC CFT073 [2]; E. coli in LPM (pH 5.5), 0.5 μM",0.565
same,"OD600 at 6hr, Mean","non-growing UPEC CFT073 [2]; E. coli in LPM (pH 5.5), 1 μM",0.575
same,"OD600 at 6hr, Mean","non-growing UPEC CFT073 [2]; E. coli in LPM (pH 5.5), 2.5 μM",0.579
same,"OD600 at 6hr, Mean","non-growing UPEC CFT073 [2]; E. coli in LPM (pH 5.5), 5 μM",0.583
same,"OD600 at 6hr, Mean","non-growing UPEC CFT073 [2]; E. coli in LPM (pH 5.5), 10 μM",0.582
same,"OD600 at 6hr, Mean","non-growing UPEC CFT073 [2]; E. coli in LPM (pH 5.5), 30 μM",0.588
same,EC50,non-growing UPEC CFT073 [2],2.22 µM
CC[C@H]1OC(=O)C[C@@H](O)[C@H](C)[C@@H](O[C@@H]2O[C@H](C)[C@@H](O[C@H]3C[C@@](C)(O)[C@@H](O)[C@H](C)O3)[C@H](N(C)C)[C@H]2O)[C@@H](CC=O)C[C@@H](C)C(=O)/C=C/C(C)=C/[C@@H]1CO[C@@H]1O[C@H](C)[C@@H](O)[C@@H](OC)[C@H]1OC [Tylosin],MIC,"E. coli CFT073 (UPEC); Escherichia coli, 1:4 diluted CA-MHB, read-out: MIC (μM) 1:4 CA-MHB",160 µM
same,MIC,"E. coli CFT073 (UPEC); Escherichia coli, CA-MHB, read-out: MIC (μM) CA-MHB",160 µM
same,MIC,"S. flexneri 5a M90T; Shigella flexneri, 5AM90T, read-out: MIC (μM) TSB",128 µM
same,MIC,"P. aeruginosa DSM1117; Pseudomonas aeruginosa, DSM1117",> 160 µM
same,MIC,S. aureus DSM2569,1 µM
same,EC50,non-growing UPEC CFT073 [2]; Escherichia coli,7.28 µM
CC[C@H]1OC(=O)[C@H](C)C(=O)[C@H](C)[C@@H](O[C@@H]2O[C@H](C)C[C@H](N(C)C)[C@H]2O)[C@](C)(OC)C[C@@H](C)C(=O)[C@H](C)[C@H]2N(CCCCn3cnc(-c4cccnc4)c3)C(=O)O[C@]12C [telithromycin],activity in the dilution-regrowth screen,non-growing UPEC CFT073 [2],no activity
colistin,activity in the dilution-regrowth screen,non-growing UPEC CFT073 [2],not identified as hits
